Measurements: patent US20190226949A1, “IRIDIUM COMPLEXES FOR CELLULAR IMAGING” (UNIVERSITY OF SOUTH AUSTRALIA, priority 2016, published 2019)
“And” between values parts separate entries of the source, which are not always exact repeats. Equal entries are not always repeated. “Also recorded” adds a separate entry of the source.

Key:
[1] = test system: non-malignant control PNT1a cells; experiment: Staining of prostate cells with lipid dyes, PNT1a; type: cell-based, Human; settings: PNT1a fixed in 4% paraformaldehyde, 30 minutes
Experimental: (§1) The fluorescent dyes, Filipin and BODIPY® 493/503, were incubated for 30 minutes with each of the four prostate cell lines (i.e. PNT1a, DU145, 22RV1 and LNCaP), fixed in 4% paraformaldehyde and imaged under confocal microscopy, which was supplemented with two-photon Mai-Tai® and Argon lasers. Prostate cell lines grown on coverslips were stained with ReZolve-L1™ and IraZolve [Ir(ppy)2(TzPyCN)] in serum-free media for 30 minutes at 37° C. and 5% CO2 and imaged in live mode, avoiding the process of fixation. From this experiment, different staining patterns between prostate cell lines and the fluorescent dyes were clearly seen (FIG. 12). For example, the level of diffuse cytosolic staining vs membrane staining with Filipin varied between cell lines (FIG. 12 a-d). […] Differences in the 22RV1 and LNCaP staining pattern in comparison to PNT1a and DU145 were apparent with BODIPY® 493/503 fluorescent dye. […] The fluorescence of ReZolve-L1™ was low in non-malignant control PNT1a cells, when compared to prostate cancer cells (FIG. 12i-l). […] These positive results prompted us to analyse staining of the prostate cells with the fluorescent dye IraZolve (FIG. 12m-p). […] In contrast, the intensity of staining in the malignant cell lines DU145, 22RV1 and LNCaP with ReZolve-L1™ was significant. […]

[2] = test system: prostate cancer DU145 cells; experiment: Staining of prostate cells with lipid dyes, DU145; type: cell-based, Human; settings: DU145 fixed in 4% paraformaldehyde, 30 minutes
Experimental: as §1

[3] = test system: prostate cancer 22RV1 cells; experiment: Staining of prostate cells with lipid dyes, 22RV1; type: cell-based, Human; settings: 22RV1 fixed in 4% paraformaldehyde, 30 minutes
Experimental: as §1

[4] = test system: prostate cancer LNCaP cells; experiment: Staining of prostate cells with lipid dyes, LNCaP; type: cell-based, Human; settings: 30 minutes
Experimental: as §1

[5] = previously published complex; cited from earlier work
[6] = Photophysical measurements (absorption, emission, lifetime, quantum yield) in diluted solutions; type: physicochemical
From the text: A summary of the photophysical data for the complexes as diluted solutions (10^−5 M) in dichloromethane, water, PBS, lysosomal fluid solution, and ethyl laurate is reported in Table 1. All the listed aqueous media also contain 0.1% DMSO to favour the solubilisation of the complexes. The various solvents have been chosen to identify potential modulations on the photophysical behaviour of the iridium complexes in diverse cellular environments such as cytoplasm, endosome/lysosomes acidic organelles, or lipid-rich compartments like membranes, endoplasmic reticulum, and lipid droplets. In general, the photophysical characteristics were measured in aerated solutions to take into account the presence of oxygen in live cells. On the other hand, dichloromethane solutions were compared as aerated and degassed to confirm oxygen sensitivity and triplet character of the excited states of the complexes.
Absorption spectra were recorded at room temperature using a Cary 4000 UV/Vis spectrometer. Uncorrected steady state emission and excitation spectra were recorded on an Edinburgh FLSP980-S2S2-stm spectrometer equipped with: i) a temperature-monitored cuvette holder; ii) 450 W Xenon arc lamp; iii) double excitation and emission monochromators; iv) a Peltier cooled Hamamatsu R928P photomultiplier tube (spectral range 200-870 nm). Emission and excitation spectra were corrected for source intensity (lamp and grating) and emission spectral response (detector and grating) by a calibration curve supplied with the instrument. According to the approach described by Demas and Crosby, luminescence quantum yields (Φem) were measured in optically dilute solutions (O.D.<0.1 at excitation wavelength) obtained from absorption spectra on a wavelength scale [nm] and compared to the reference emitter by the following equation: […]
where A is the absorbance at the excitation wavelength (λ), I is the intensity of the excitation light at the excitation wavelength (λ), n is the refractive index of the solvent, D is the integrated intensity of the luminescence and Φ is the quantum yield. The subscripts r and x refer to the reference and the sample, respectively. The quantum yield determinations were performed at identical excitation wavelength for the sample and the reference, therefore cancelling the I(λr)/I(λx) term in the equation. The quantum yields of complexes were measured against Rubipy in water (Φr=0.028). Emission lifetimes (z) were determined with the time correlated single photon counting technique (TCSPC) with the same Edinburgh FLSP980-S2S2-stm spectrometer using either a pulsed picosecond LED (EPLED/EPL 377 nm, FHWM<800 ps) or a microsecond flashlamp. The goodness of fit was assessed by minimising the reduced χ^2 function and by visual inspection of the weighted residuals. The solvents used for the preparation of the solutions for the photophysical investigations were of LR grade and the water was deionised. Degassing of the dichlorometane solutions was performed using the freeze-pump-thaw method. Experimental uncertainties are estimated to be ±8% for lifetime determinations, ±20% for quantum yields, ±2 nm and ±5 nm for absorption and emission peaks, respectively.

[7] = Lipophilicity by shake-flask method (7.4-buffered PBS / n-octanol); type: physicochemical; settings: 7.4-buffered PBS solution and n-octanol
Experimental: The lipophilicity of the iridium complexes was measured by the shake-flask method using 7.4-buffered PBS and n-octanol as solvents (Table 2). The values range between 1.49 and 2.68 are typical for cyclometalated iridium complexes that have not been bioconjugated. […] In general, neutral complexes have log D7.4 values above 2.00 and there is an increased in lipophilicity of extending the tetrazolato ligand with the addition of a phenyl spacer in [Ir(ppy)2(TzPyPhCN)], or by extending the conjugation on passing from pyridine to quinoline or isoquinoline for [Ir(ppy)2(TzQn)] and [Ir(ppy)2(TziQn)]. Methylation in all cases reduces lipophilicity to log D7.4 values […], with the same trend within the family of methylated complexes as previously observed for the neutral ones.

CC1=CC(C)=[N+]2C1=C(C)c1c(C)cc(C)n1[B-]2(F)F [BODIPY® 493/503, reference compound]
staining pattern [1]: localised staining to lipid droplets | staining pattern [2]: localised staining to lipid droplets | staining pattern [3]: diffused cytosolic staining and localised staining to lipid droplets

CCCCC[C@@H](O)[C@H]1C(=O)O[C@H](C)[C@@H](O)/C=C/C=C/C=C/C=C/C=C(\C)[C@@H](O)C[C@H](O)C[C@H](O)C[C@H](O)C[C@H](O)C[C@H](O)C[C@@H]1O [Filipin, reference compound]
staining pattern [1]: a number of small vesicles were brightly stained | staining pattern [2]: relatively low level | staining pattern [3]: quite bright vesicular and plasma membrane staining | staining pattern ([4]; LNCaP fixed in 4% paraformaldehyde): a number of small vesicles were brightly stained

c1cc[c]2c(c1)-c1cccc[n+]1[Ir]213([c]2ccccc2-c2cccc[n+]21)[n]1nnnc1-c1cccc[n+]13 [[Ir(ppy)2(TzPy)]]
λem, structured emission [5]: 481 nm and 510 nm

N#Cc1ccc2[n+](c1)[Ir]13([c]4ccccc4-c4cccc[n+]41)([c]1ccccc1-c1cccc[n+]13)[n]1nnnc1-2 [[Ir(ppy)2(TzPyCN)]]
Absorption λabs [nm] (10^4ε [M^−1cm^−1]) ([6]; DCM, 10^−5 M): 263 (6.57) nm (10^4ε [M^−1cm^−1]) and 339 (1.59) nm (10^4ε [M^−1cm^−1]) and 382 (1.09) nm (10^4ε [M^−1cm^−1]) and 420 (0.58) nm (10^4ε [M^−1cm^−1]) | Emission λem ([6]; DCM, 298K, 10^−5 M): 618 nm | τaer, excited state lifetime (relative weight in parentheses) ([6]; DCM, aerated, 298K): 131 ns | Φaer, quantum yield ([6]; DCM, aerated, versus Ru(bpy)3^2+ in water (φr = 0.028)): 0.055 | τdeaer, excited state lifetime (relative weight in parentheses) ([6]; DCM, deaerated, 298K): 529 ns | Φdeaer, quantum yield ([6]; DCM, deaerated, versus Ru(bpy)3^2+ in water (φr = 0.028)): 0.397 | knr ([6]; DCM, calculated as [(1 − φ)/τ] from deaerated solutions): 1.140 10^6s^−1 | kr ([6]; DCM, calculated as [φ/τ] from deaerated solutions): 7.505 10^5s^−1 | Emission λem ([6]; H2O with 0.1% DMSO, 298K, aerated): 618 nm | Φ, quantum yield ([6]; H2O with 0.1% DMSO, aerated, versus Ru(bpy)3^2+ in water): 0.047 | logD7.4, distribution coefficient [7]: 2.09 ± 0.06 | staining pattern / intensity ([4]; live LNCaP, 20 μM, serum-free media, listed as IraZolve): stains the endoplasmic reticulum, where both phospholipids and triacylglycerides are synthesised, and it also co-localises with fatty acids in lipid droplets; also recorded: almost identical to that observed for ReZolve-L1™; also recorded: significantly greater
